Values of other authors in PMC5189927 (Molecular Psychiatry, 2014).
Structures can show the parent of a compound that is named as a salt.

What was measured:
glucocerebrosidase [1] = conditions: healthy volunteers
glucocerebrosidase [2] = system: glucocerebrosidase
α-galactosidase A [3] = conditions: Fabry patients with amenable mutations, phase 3, 12 months of treatment
α-galactosidase A [4] = conditions: healthy volunteers
β-hex A = conditions: phase 1/2, Tay–Sachs and Sandhoff patients

Question: Which “Increase in wild-type glucocerebrosidase levels” value (glucocerebrosidase [1]) does the source give for OC[C@H]1CNC[C@@H](O)[C@@H]1O [isofagomine, isofagomine tartrate] here?
Answer: The value was “two- to threefold”.

Question: And the “Glucocerebrosidase levels in peripheral blood mononuclear cells” value (glucocerebrosidase [2]; healthy volunteers (phase 1) and type I Gaucher patients (phase 2))?
Answer: The value was “significantly increased”.

Question: And the “Gaucher patients with clinically meaningful end points” value (glucocerebrosidase [2]; phase 2, doses and dosing regimens assessed)?
Answer: Its value is 1 of 18.

Question: Which “Levels of kidney interstitial capillary GL-3” value (α-galactosidase A [3]) does the source give for OC[C@H]1NC[C@H](O)[C@@H](O)[C@H]1O [migalastat, deoxygalactonojirimycin hydrochloride] here?
Answer: Its value is “statistically significant reduction”.

Question: What about the “Increase in wild-type α-galactosidase A levels” value (α-galactosidase A [4]) of the same molecule?
Answer: The value was “two- to threefold”.

Question: Which results are given for CCc1nc(N)nc(N)c1-c1ccc(Cl)cc1 [pyrimethamine, Pyrimethamine]?
Answer: Side effects (β-hex A): severe side effects; β-hex A levels in patients (β-hex A): increased β-hex A levels for all eight patients
